Measurements published in ChEMBL document CHEMBL1949514, “Design, Synthesis, and Antitumor Activity of 4-Halocolchicines and Their Pro-drugs Activated by Cathepsin B” (ACS Med Chem Lett, 2011).

Columns and labels:
HT-29 = assay: Cytotoxicity against human HT-29 cells after 96 hrs using tetracolor one; type: functional, cell-based; conditions: HT-29, 96 h
HCT-116 [1] = assay: Cytotoxicity against human HCT116 cells after 96 hrs using tetracolor one; type: functional, cell-based; conditions: HCT-116, 96 h
A549 = assay: Cytotoxicity against human A549 cells after 96 hrs using tetracolor one; type: functional, cell-based; conditions: A549, 96 h
HCT-116 [2] = assay: Antitumor activity against human HCT116 cells xenografted in BALB/c mouse assessed as tumor growth inhibition at 1 mg/kg, ip administered on day 1 to day 5 and day 8 to day 12 measured on day 21 relative to control; type: functional; conditions: HCT-116, ip, route intraperitoneal, read-out: TGI
Mus musculus [3] = assay: Toxicity in human HCT116 cells xenografted BALB/c mouse assessed as mortality at 1 mg/kg, ip administered on day 1 to day 5 and day 8 to day 12 measured on day 21; type: organism-based, HCT-116; set-up: dose 1 mg/kg, route intraperitoneal; conditions: in vivo
Mus musculus [4] = assay: Toxicity in human HCT116 cells xenografted BALB/c mouse assessed as mortality at […], ip administered on day 1 to day 5 and day 8 to day 12 measured on day 21; type: organism-based, HCT-116; set-up: dose 0.25 mg/kg, route intraperitoneal; conditions: in vivo
HCT-116 [5] = assay: Antitumor activity against human HCT116 cells xenografted in BALB/c mouse assessed as tumor growth inhibition at […], ip administered on day 1 to day 5 and day 8 to day 12 measured on day 21 relative to control; type: functional; conditions: HCT-116, ip, dose 0.25 mg/kg, route intraperitoneal, read-out: TGI
Mus musculus [6] = assay: Toxicity in human HCT116 cells xenografted BALB/c mouse assessed as mortality at 5 mg/kg, ip administered on day 1 to day 5 and day 8 to day 12 measured on day 21; type: organism-based, HCT-116; set-up: dose 5 mg/kg, route intraperitoneal; conditions: in vivo
HCT-116 [7] = assay: Antitumor activity against human HCT116 cells xenografted in BALB/c mouse assessed as tumor growth inhibition at 5 mg/kg, ip administered on day 1 to day 5 and day 8 to day 12 measured on day 21 relative to control; type: functional; conditions: HCT-116, ip, route intraperitoneal, read-out: TGI
[8] = Prodrug conversion assessed as (S)-7-Amino-1,2,3,10-tetramethoxy-6,7-dihydro-5H-benzo[a]heptalen-9-one release at 4 uM in presence of bovine spleen cathepsin-B by HPLC analysis; type: physicochemical; conditions: cattle
HUVEC [9] = assay: Cytotoxicity against human HUVEC cells after 96 hrs using tetracolor one; type: ADME, cell-based
HUVEC [10] = assay: Selectivity ratio of IC50 for human HUVEC cells to IC50 for human HT-29 cells
[11] = Chemical stability of the compound after 24 hrs by HPLC analysis; type: physicochemical
[12] = Prodrug conversion assessed as (S)-7-Amino-4-fluoro-1,2,3,10-tetramethoxy-6,7-dihydro-5H-benzo[a]heptalen-9-one release at 4 uM in presence of bovine spleen cathepsin-B by HPLC analysis; type: physicochemical; conditions: cattle
HCT-116 [13] = assay: Antitumor activity against human HCT116 cells xenografted in BALB/c mouse assessed as tumor growth inhibition at 1 mg/kg, ip administered on 1, 3 and 5th day measured on day 21 relative to control; type: functional; conditions: HCT-116, ip, 504 h, route intraperitoneal, read-out: TGI

What does the source list for `COc1c(C=O)c2c(c(OC)c1OC)-c1ccc(OC)c(=O)cc1[C@@H](NC(C)=O)CC2`?
IC50 (HT-29): 128 nM; IC50 (HCT-116 [1]): 54 nM; IC50 (A549): 1010 nM

Which results are given for `COc1c(F)c2c(c(OC)c1OC)-c1ccc(OC)c(=O)cc1[C@@H](NC(C)=O)CC2`?
IC50 (HT-29): 7 nM; inhibition in vivo at 1 mg/kg (HCT-116 [2]): 55.6%; Activity (Mus musculus [3]): Non-toxic; IC50 (HCT-116 [1]): 8 nM; Activity (Mus musculus [4]): Non-toxic; inhibition in vivo at […] (HCT-116 [5]): 25%; IC50 (A549): 33 nM

With `COc1c(Cl)c2c(c(OC)c1OC)-c1ccc(OC)c(=O)cc1[C@@H](NC(C)=O)CC2` as the molecule, how does the IC50 (HT-29) read?
The IC50 was 10 nM.

And the Activity (Mus musculus [6])?
The Activity was “Non-toxic”.

And the inhibition in vivo at 5 mg/kg (HCT-116 [7])?
The inhibition in vivo at 5 mg/kg was 68.4%.

And the IC50 (HCT-116 [1])?
The IC50 was 9 nM.

And the IC50 (A549)?
Its IC50 is 12 nM.

Which IC50 (HT-29) does the source give for `COc1c(Br)c2c(c(OC)c1OC)-c1ccc(OC)c(=O)cc1[C@@H](NC(C)=O)CC2` here?
Its IC50 is 6 nM.

What about the IC50 (HCT-116 [1]) of the same molecule?
The IC50 was 7 nM.

And the IC50 (A549)?
Its IC50 is 14 nM.

Which results are given for `COc1c(I)c2c(c(OC)c1OC)-c1ccc(OC)c(=O)cc1[C@@H](NC(C)=O)CC2`?
IC50 (HT-29): 6 nM; IC50 (HCT-116 [1]): 7 nM; IC50 (A549): 32 nM

With `COc1c(O)c2c(c(OC)c1OC)-c1ccc(OC)c(=O)cc1[C@@H](NC(C)=O)CC2` as the molecule, how does the IC50 (HT-29) read?
The IC50 was 484 nM.

And the IC50 (A549)?
Its IC50 is 225 nM.

What does the source list for `COc1c(N)c2c(c(OC)c1OC)-c1ccc(OC)c(=O)cc1[C@@H](NC(C)=O)CC2`?
IC50 (HT-29): 1550 nM; IC50 (A549): 2180 nM

For `COc1c(OC)c2c(c([N+](=O)[O-])c1OC)CC[C@H](NC(C)=O)c1cc(=O)c(OC)ccc1-2`, which IC50 (HT-29) is on record?
The IC50 was 31 nM.

What about the IC50 (HCT-116 [1]) of the same molecule?
Its IC50 is 38 nM.

What about the IC50 (A549) of the same molecule?
Its IC50 is 73 nM.

With `COc1cc2c(c(OC)c1OC)-c1ccc(OC)c(=O)cc1[C@@H](NC(=O)OCc1ccc(NC(=O)[C@H](CCCCN)NC(=O)[C@H](Cc3ccccc3)NC(=O)OCc3ccccc3)cc1)CC2` as the molecule, how does the Drug metabolism [8] read?
Its Drug metabolism is “Active”.

And the IC50 (HUVEC [9])?
Its IC50 is 75 nM.

And the IC50 (HT-29)?
Its IC50 is 44 nM.

What about the “Ratio IC50” value (HUVEC [10]) of the same molecule?
The value was 1.7.

What about the Stability [11] of the same molecule?
Its Stability is “Stable”.

What does the source list for `COc1c(F)c2c(c(OC)c1OC)-c1ccc(OC)c(=O)cc1[C@@H](NC(=O)OCc1ccc(NC(=O)[C@H](CCCCN)NC(=O)[C@H](Cc3ccccc3)NC(=O)OCc3ccccc3)cc1)CC2`?
IC50 (HUVEC [9]): 151 nM; Drug metabolism [12]: Active; IC50 (HT-29): 91 nM; Ratio IC50 (HUVEC [10]): 1.7; Stability [11]: Stable

What does the source list for `COc1c(F)c2c(c(OC)c1OC)-c1ccc(OC)c(=O)cc1[C@@H](N)CC2`?
IC50 (HUVEC [9]): 75 nM; IC50 (HT-29): 80 nM; Ratio IC50 (HUVEC [10]): 0.9; IC50 (A549): 101 nM

Which IC50 (HT-29) does the source give for `COc1c(Cl)c2c(c(OC)c1OC)-c1ccc(OC)c(=O)cc1[C@@H](N)CC2` here?
The IC50 was 250 nM.

And the IC50 (A549)?
Its IC50 is 301 nM.

Which IC50 (HT-29) does the source give for `COc1cc2c(c(OC)c1OC)-c1ccc(OC)c(=O)cc1[C@@H](NC(C)=O)CC2` [COLCHICINE] here?
Its IC50 is 8 nM.

And the inhibition in vivo at 1 mg/kg (HCT-116 [13])?
Its inhibition in vivo at 1 mg/kg is 32.8%.

What about the IC50 (HCT-116 [1]) of the same molecule?
The IC50 was 11 nM.

And the IC50 (A549)?
The IC50 was 54 nM.
